Counter-ions that a name gives are not always drawn.

The test addresses T1, NLRP3 (Homo sapiens, UniProt Q96P20).
T1 construct: Seed THP-1 cells (25,000 cells/well) containing 1.0 μg/ml LPS in 40 μl of RPMI medium; host or cells: THP-1 cells
Kind of test: THP-1 cells pyroptosis assay. It counts as cell-based. The settings on record: LPS 1 μg/ml, compound 3 hrs, nigericin 5 μM 1 hr, resazurin readout. How it is done:
THP-1 cells (ATCC #TIB-202) were grown in RPMI containing L-glutamine (Gibco #11835) supplemented with 1 mM sodium pyruvate (Sigma #S8636) and penicillin (100 units/ml)/streptomycin (0.1 mg/ml) (Sigma #P4333) in 10% Fetal Bovine Serum (FBS) (Sigma #F0804). The cells were routinely passaged and grown to confluency (10^6 cells/ml). On the day of the experiment, THP-1 cells were harvested and resuspended into RPMI medium (without FBS). The cells were then counted and viability (>90%) checked by Trypan blue (Sigma #T8154). Appropriate dilutions were made to give a concentration of 625,000 cells/ml. To this diluted cell solution was added LPS (Sigma #L4524) to give a 1 μg/ml Final Assay Concentration (FAC). 40 μl of the final preparation was aliquoted into each well of a 96-well plate. The plate thus prepared was used for compound screening.
The following method step-by-step assay was followed for compound screening. • 1. Seed THP-1 cells (25,000 cells/well) containing 1.0 μg/ml LPS in 40 μl of RPMI medium (without FBS) in 96-well, black walled, clear bottom cell culture plates coated with poly-D-lysine (VWR #734-0317) • 2. Add 5 μl compound (8 points half-log dilution, with 10 μM top dose) or vehicle (DMSO 0.1% FAC) to the appropriate wells • 3. Incubate for 3 hrs at 37° C., 5% CO2 • 4. Add 5 μl nigericin (Sigma #N7143) (FAC 5 μM) to all wells • 5. Incubate for 1 hr at 37° C., 5% CO2 • 6. At the end of the incubation period, spin plates at 300×g for 3 mins and remove supernatant • 7. Then add 50 μl of resazurin (Sigma #R7017)(FAC 100 μM resazurin in RPMI medium without FBS) and incubate plates for a further 1-2 hrs at 37° C. and 5% CO2 • 8. Plates were read in an Envision reader at Ex 560 nm and Em 590 nm • 9. IC50 data is fitted to a non-linear regression equation (log inhibitor vs response-variable slope 4-parameters) 96-well Plate Map
(In general: The colour change of resazurin is a common sign of viable cells or microbes.)

T1 sequence (Q96P20 whole entry): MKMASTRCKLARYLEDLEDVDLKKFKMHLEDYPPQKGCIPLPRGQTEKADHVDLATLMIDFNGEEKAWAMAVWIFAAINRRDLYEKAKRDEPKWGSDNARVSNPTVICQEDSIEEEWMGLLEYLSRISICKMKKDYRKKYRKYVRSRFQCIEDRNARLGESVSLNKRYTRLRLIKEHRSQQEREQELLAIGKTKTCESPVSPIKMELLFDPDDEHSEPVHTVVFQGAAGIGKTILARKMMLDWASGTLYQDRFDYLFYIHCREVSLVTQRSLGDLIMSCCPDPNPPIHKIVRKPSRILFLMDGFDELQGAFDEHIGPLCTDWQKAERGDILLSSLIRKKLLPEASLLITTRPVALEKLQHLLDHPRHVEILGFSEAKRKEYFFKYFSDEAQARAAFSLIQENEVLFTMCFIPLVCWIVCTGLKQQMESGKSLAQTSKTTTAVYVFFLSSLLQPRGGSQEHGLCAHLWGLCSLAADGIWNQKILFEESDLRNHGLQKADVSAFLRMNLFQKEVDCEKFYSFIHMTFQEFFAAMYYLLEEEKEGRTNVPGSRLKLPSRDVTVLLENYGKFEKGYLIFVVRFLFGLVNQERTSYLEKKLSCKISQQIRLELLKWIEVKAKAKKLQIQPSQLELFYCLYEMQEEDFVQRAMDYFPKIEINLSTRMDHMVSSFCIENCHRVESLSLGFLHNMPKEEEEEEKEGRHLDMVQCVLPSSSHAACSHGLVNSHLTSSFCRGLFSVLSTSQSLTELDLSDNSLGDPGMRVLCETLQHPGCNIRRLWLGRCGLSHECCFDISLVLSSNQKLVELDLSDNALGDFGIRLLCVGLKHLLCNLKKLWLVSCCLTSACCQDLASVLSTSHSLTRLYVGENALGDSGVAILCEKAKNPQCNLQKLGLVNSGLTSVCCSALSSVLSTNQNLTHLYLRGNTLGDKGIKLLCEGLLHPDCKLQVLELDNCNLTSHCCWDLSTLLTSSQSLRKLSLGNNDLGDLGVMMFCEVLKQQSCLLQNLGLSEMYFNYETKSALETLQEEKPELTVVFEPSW

`COc1cc(-c2cc(F)cc(C(C)C)c2CC(=O)NS(=O)(=O)c2cc(Br)ccc2C)ccn1` [Example 128] had a half-inhibitory concentration (IC50) of at most 1000 nM. Under `COc1cc(-c2cc(F)cc(C(C)C)c2CC(=O)NS(=O)(=O)c2ccc(C3CC3)cc2C)ccn1` [Example 151] stands at most 500 nM; under `COc1cc(-c2cc(F)cc(C(C)C)c2CC(=O)NS(=O)(=O)c2ccc(Cl)cc2OC)ccn1` [Example 12], at most 1000 nM; under `COc1cc(-c2cc(F)cc(C(C)C)c2CC(=O)NS(=O)(=O)c2ccc(C(C)(C)NC(=O)OC(C)(C)C)c(F)c2)ccn1` [Example 90, tert-Butyl (2-(2-fluoro-4-(N-(2-(4-fluoro-2-isopropyl-6-(2-methoxypyridin-4-yl)phenyl)acetyl)sulfamoyl)phenyl)propan-2-yl)carbamate], at most 500 nM. `C=C(C)c1ccc(S(=O)(=O)NC(=O)Cc2c(-c3ccnc(OC)c3)cc(F)cc2C(C)C)c(C)c1` [Example 164] came in with an IC50 of at most 500 nM.

`COc1cc(-c2cc(F)cc(C(C)C)c2CC(=O)NS(=O)(=O)c2ccc(C)cc2F)ccn1` [Example 120] had an IC50 of at most 1000 nM. Under `Cc1cnccc1-c1cc(F)cc(C(C)C)c1CC(=O)NS(=O)(=O)c1cc(C(C)(C)O)cs1` [Example 100, 2-(4-Fluoro-2-isopropyl-6-(3-methylpyridin-4-yl)phenyl)-N-((4-(2-hydroxypropan-2-yl)thiophen-2-yl)sulfonyl)acetamide] stands at most 500 nM; under `COc1cc(-c2cc(F)cc(C(C)C)c2CC(=O)NS(=O)(=O)c2cccc3ccoc23)ccn1` [Example 115], at most 1000 nM; under `C=C(C)c1csc(S(=O)(=O)NC(=O)Cc2c(-c3ccnc(OC)c3)nn(C)c2C(C)C)c1` [Example 163], at most 10000 nM. Consider `COc1cc(-c2cc(F)cc(C(C)C)c2CC(=O)NS(=O)(=O)c2ccc3c(c2)C(C)(C)OC3=O)ccn1` [Example 29, N-((3,3-Dimethyl-1-oxo-1,3-dihydroisobenzofuran-5-yl)sulfonyl)-2-(4-fluoro-2-isopropyl-6-(2-methoxypyridin-4-yl)phenyl) acetamide], for which the half-maximal inhibitory concentration (IC50) is at most 5000 nM. Take `COc1cc(-c2cc(F)cc(C(C)C)c2CC(=O)NS(=O)(=O)c2c(C)nn(C(C)C)c2C)ccn1` [Example 152]: the IC50 was at most 5000 nM.

In turn, `COc1cc(-c2cc(F)cc(C(C)C)c2CC(=O)NS(=O)(=O)c2cc(C(=O)N(C)C)n(C)n2)ccn1` [Example 58, 3-(N-(2-(4-Fluoro-2-isopropyl-6-(2-methoxypyridin-4-yl)phenyl)acetyl)sulfamoyl)-N,N,1-trimethyl-1H-pyrazole-5-carboxamide] yielded an IC50 of at most 1000 nM. On to `COc1cc(-c2cc(F)cc(C(C)C)c2CC(=O)NS(=O)(=O)c2ccc3c(c2)COC3)ccn1` [Example 124], for which the IC50 was at most 500 nM. The compound `COc1cc(-c2cc(F)cc(C(C)C)c2CC(=O)NS(=O)(=O)c2cc(C(C)(C)O)ccn2)ccn1` [Example 170] had an IC50 of at most 500 nM. The compound `COc1cc(-c2cc(F)cc(C(C)C)c2CC(=O)NS(=O)(=O)c2cn(C)c(=O)n(C)c2=O)ccn1` [Example 3, N-((1,3-Dimethyl-2,4-dioxo-1,2,3,4-tetrahydropyrimidin-5-yl)sulfonyl)-2-(4-fluoro-2-isopropyl-6-(2-methoxypyridin-4-yl)phenyl)acetamide] yielded a 50% inhibitory concentration (IC50) of at most 1000 nM. For the compound `COc1cc(-c2cc(F)cc(C(C)C)c2CC(=O)NS(=O)(=O)c2cc(C(C)(C)O)c(F)cc2F)ccn1` [Example 149], the concentration for half-maximal inhibition (IC50) is at most 500 nM. As to `COc1cc(-c2cc(F)cc(C(C)C)c2CC(=O)NS(=O)(=O)c2cc(C(C)C)c(F)cc2F)ccn1` [Example 156], the half-inhibitory concentration (IC50) is at most 500 nM. `CC(C)c1cc(F)cc(-c2ccncc2)c1CC(=O)NS(=O)(=O)c1ccn(C(C)(C)CN(C)C)n1` [Example 61, N-((1-(1-(Dimethylamino)-2-methylpropan-2-yl)-1H-pyrazol-3-yl)sulfonyl)-2-(4-fluoro-2-isopropyl-6-(pyridin-4-yl)phenyl)acetamide] displayed an IC50 of at most 5000 nM.

`COc1cc(-c2cc(F)cc(C(C)C)c2CC(=O)NS(=O)(=O)c2ccc(C(C)(C)N(C)C)c(F)c2)ccn1` [Example 91, N-((4-(2-(Dimethylamino)propan-2-yl)-3-fluorophenyl)sulfonyl)-2-(4-fluoro-2-isopropyl-6-(2-methoxypyridin-4-yl)phenyl)acetamide] yielded an IC50 of at most 5000 nM. Take `COc1cc(-c2cc(F)cc(C(C)C)c2CC(=O)NS(=O)(=O)c2ccc(C(C)(C)O)cn2)ccn1` [Example 137]: the IC50 is at most 10000 nM. As to `COc1cc(-c2cc(F)cc(C(C)C)c2CC(=O)NS(=O)(=O)c2ccc(C)cc2)ccn1` [Example 112, 2-(4-Fluoro-2-isopropyl-6-(2-methoxypyridin-4-yl)phenyl)-N-tosylacetamide], the concentration for half-maximal inhibition (IC50) was at most 5000 nM. `COc1cc(-c2cc(F)cc(C(C)C)c2CC(=O)NS(=O)(=O)c2ncc(C(C)(C)O)s2)ccn1` [Example 106, 2-(4-Fluoro-2-isopropyl-6-(2-methoxypyridin-4-yl)phenyl)-N-((5-(2-hydroxypropan-2-yl)thiazol-2-yl)sulfonyl)acetamide] showed an IC50 of at most 5000 nM. `COc1cc(-c2ccc3c(c2CC(=O)NS(=O)(=O)c2ncc(C(C)(C)O)s2)CCC3)ccn1` [Example 105, N-((5-(2-Hydroxypropan-2-yl)thiazol-2-yl)sulfonyl)-2-(5-(2-methoxypyridin-4-yl)-2,3-dihydro-1H-inden-4-yl)acetamide] had an IC50 of at most 10000 nM.

Compound `COc1cc(-c2cc(F)cc(C(C)C)c2CC(=O)NS(=O)(=O)c2ccc(C(C)(C)O)cc2C)ccn1` [Example 33, 2-(4-Fluoro-2-isopropyl-6-(2-methoxypyridin-4-yl)phenyl)-N-((4-(2-hydroxypropan-2-yl)-2-methylphenyl)sulfonyl)acetamide] came in with an IC50 of at most 500 nM. `COc1cc(-c2cc(F)cc(C(C)C)c2CC(=O)NS(=O)(=O)c2cc(Br)c(Cl)cc2C)ccn1` [Example 178] gave an IC50 of at most 1000 nM.

On to `Cc1cc(C(C)(C)O)ccc1S(=O)(=O)NC(=O)Cc1c(-c2cccnc2)cc(F)cc1C(C)C` [Example 82, 2-(4-Fluoro-2-isopropyl-6-(pyridin-3-yl)phenyl)-N-((4-(2-hydroxypropan-2-yl)-2-methylphenyl)sulfonyl)acetamide], for which the concentration for half-maximal inhibition (IC50) is at most 5000 nM.

In turn, `COc1cc(-c2cc(F)cc(C(C)C)c2CC(=O)NS(=O)(=O)c2ccc(B(O)O)cc2)ccn1` [Example 18] had an IC50 of at most 10000 nM. Under `COc1cc(-c2cc(F)cc(C(C)C)c2CC(=O)NS(=O)(=O)c2c(F)cc(C)cc2F)ccn1` [Example 113] stands at most 1000 nM. For `COc1cc(-c2cc(F)cc(C(C)C)c2CC(=O)NS(=O)(=O)c2c(Cl)cc(N(C)C)cc2Cl)ccn1` [Example 161], the half-inhibitory concentration (IC50) was at most 5000 nM. As for `CCOC(=O)c1cc(S(=O)(=O)NC(=O)Cc2c(-c3ccnc(OC)c3)cc(F)cc2C(C)C)nn1C` [Example 28, Ethyl 3-(N-(2-(4-fluoro-2-isopropyl-6-(2-methoxypyridin-4-yl)phenyl)acetyl)sulfamoyl)-1-methyl-1H-pyrazole-5-carboxylate], the figure is at most 5000 nM; as for `COc1cc(-c2c(CC(=O)NS(=O)(=O)c3cc(C(C)(C)O)cs3)c(C(C)C)nn2C)ccn1` [Example 147], at most 5000 nM; as for `COc1cc(-c2cc(F)cc(C(C)C)c2CC(=O)NS(=O)(=O)c2cc(C(C)(C)O)ccc2C)ccn1` [Example 167], at most 5000 nM. The compound `COc1cc(-c2ccc3c(c2CC(=O)NS(=O)(=O)N(C)C2CCN(C)C2)CCC3)ccn1` (centres unmarked) [Example 55, 2-(5-(2-Methoxypyridin-4-yl)-2,3-dihydro-H-inden-4-yl)-N—(N-methyl-N-(1-methylpyrrolidin-3-yl)sulfamoyl)acetamide, potassium salt] displayed an IC50 of at most 5000 nM. Under `COc1cc(-c2cc(F)cc(C(C)C)c2CC(=O)NS(=O)(=O)c2ccc(C(C)C)cc2C)ccn1` [Example 157] stands at most 500 nM; under `CCN(CC)CCCS(=O)(=O)NC(=O)Cc1c(-c2ccnc(OC)c2)ccc2c1CCC2` [Example 56, N-((3-(Diethylamino)propyl)sulfonyl)-2-(5-(2-methoxypyridin-4-yl)-2,3-dihydro-1H-inden-4-yl)acetamide], at most 10000 nM; under `COc1cc(-c2cc(F)cc(C(C)C)c2CC(=O)NS(=O)(=O)c2ccc3ccccc3c2)ccn1` [Example 126], at most 500 nM.

Compound `COc1cc(-c2cc(F)cc(C(C)C)c2CC(=O)NS(=O)(=O)c2ccc(Cl)c(Cl)c2)ccn1` [Example 11] yielded an IC50 of at most 1000 nM. On to `COc1cc(-c2cc(F)cc(C(C)C)c2CC(=O)NS(=O)(=O)c2c(C)nn(CC(C)C)c2C)ccn1` [Example 172], for which the IC50 is at most 5000 nM.

The term IC50 denotes the midpoint of a concentration-inhibition curve.
